# Measurements as given in patent US20210255193A1, “LYSINE REACTIVE PROBES AND USES THEREOF” (The Scripps Research Institute, priority 2017, published 2021).
# Experiments:
# PLIN3 Perilipin-3 = target: T1, PLIN3 Perilipin-3 (Homo sapiens, UniProt O60664); assay: competitive isoTOP-ABPP; assay type: binding; details: for isoTOP-ABPP ratio (R) at liganded lysine O60664_K257 / isoTOP-ABPP ratio (R) at liganded lysine O60664_K140: 50 uM, in vitro, sol, 231
# T1 construct: isoTOP-ABPP experiments performed in cell lysates (in vitro); endogenous in cells; host or cells: MDA-MB-231 soluble lysate
# T1 sequence (O60664 1-434): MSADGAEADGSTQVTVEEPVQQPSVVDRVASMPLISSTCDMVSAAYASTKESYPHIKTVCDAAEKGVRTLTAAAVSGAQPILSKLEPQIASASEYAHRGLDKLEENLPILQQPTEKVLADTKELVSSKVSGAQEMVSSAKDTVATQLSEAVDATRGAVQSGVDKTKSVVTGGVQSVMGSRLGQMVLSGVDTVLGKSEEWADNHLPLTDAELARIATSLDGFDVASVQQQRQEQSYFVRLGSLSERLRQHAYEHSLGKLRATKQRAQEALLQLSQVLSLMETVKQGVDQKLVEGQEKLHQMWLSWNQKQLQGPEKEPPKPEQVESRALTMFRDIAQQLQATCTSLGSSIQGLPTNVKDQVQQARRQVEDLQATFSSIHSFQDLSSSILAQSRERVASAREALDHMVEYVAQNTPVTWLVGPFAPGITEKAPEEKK
# Procedure: (§1) In vitro covalent fragment treatment for isoTOP-ABPP. All compounds were made up as solutions in DMSO (100×) and were used at a final concentration of 50 μM for activated esters and 100 μM for guanidinylating agents. For each profiling sample, 0.5 ml of lysate was treated with 5 μl of the 100× compound stock solution or 5 μl of DMSO. Samples were treated with activated esters for
# (§2) STP-alkyne labeling and click chemistry. For concentration-dependent reactivity measurements by isoTOP-ABPP, 0.5 ml proteome aliquots were treated at ambient temperature with 1 mM STP-alkyne 1 (5 μl of 100 mM stock in DMSO) and 0.1 mM STP alkyne 1 (5 μl of 10 mM stock in DMSO), respectively. For competitive isoTOP-ABPP, after in vitro fragment treatment (detailed above), the samples were labeled for 1 h at ambient temperature with 0.1 mM STP-alkyne 1 (5 μl of 10 mM stock in DMSO). Samples were conjugated by copper-mediated azide-alkyne cycloaddition (CuAAC) to either the light (1 mM STP-alkyne or fragment treated) or heavy (0.1 mM STP-alkyne or DMSO treated) TEV tags (10 μl of 5 mM stocks in DMSO, final concentration=100 μM) using tris(2-carboxyethyl)phosphine hydrochloride
# (§3) R value calculation and processing. The ratios of light and heavy MS1 peaks for each unique peptide were quantified with a CIMAGE software using default parameters (3 MS1 acquisitions per peak and signal to noise threshold set to 2.5). For reactivity measurements by isoTOP-ABPP, the R value was calculated from the ratio of MS1 peak areas, comparing the 1 mM STP alkyne sample (light TEV tag) with the 0.1 mM STP alkyne sample (heavy TEV tag). For competitive isoTOP-ABPP, the R value was calculated from the ratio of MS1 peak areas, comparing the DMSO treated sample (heavy TEV tag) with the compound treated sample (light TEV tag). […] Ratios for unique peptide entries are calculated for each experiment; overlapping peptides with the same modified lysine (for example, different charge states, MudPIT chromatographic steps or tryptic termini) are grouped together and the median ratio is reported as the final ratio (R). The peptide ratios reported by CIMAGE were further filtered to ensure the removal or correction of low-quality ratios in each individual data set. The quality filters applied were the following: removal of half tryptic peptides; for ratios with high standard deviations from the median (90% of the median or above) the lowest ratio was taken instead of the median; removal of peptides with R=20 and only a single MS2 event triggered during the elution of the parent ion; manual annotation of all the peptides with ratios of 20, removing any peptides with low quality elution profiles that remained after the previous curation steps (only done for competitive isoTOP-ABPP).
# (§4) Cross-data processing for fragment screening. For compound treated samples, biological replicates of the same condition were averaged, if the standard deviation was below 60% of the mean; otherwise, for lysines with at least one R value <4 for a particular compound, the lowest value of the ratio set was taken. For lysines, where all R values for a particular compound were ≥4, the average was reported. For peptides containing several possible modified lysines, the lysine with the highest number of quantification events was used for analysis and the remaining, redundant peptides were reported as alternative modification sites. Peptides included in the aggregate dataset (those used for further bioinformatics and statistical analyses) were required to have been quantified in 2 experiments for competitive isoTOP-ABPP. Lysines were categorized as liganded, if they had at least one ratio R≥4 (hit fragments). For liganded lysines with R=20 for all liganding events, lysines were required to have been quantified with R=20 in two separate experiments and were further required to have been quantified with R<20 in one additional experiment.
# [1] = target: T2, AGFG1 Arf-GAP domain and FG repeat-containing protein 1 (Homo sapiens, UniProt P52594); assay: competitive isoTOP-ABPP; assay type: binding; details: for isoTOP-ABPP ratio (R) at liganded lysine P52594_K134: 50 uM, in vitro, sol, 231
# T2 construct: isoTOP-ABPP experiments performed in cell lysates (in vitro); endogenous in cells; host or cells: soluble proteome of human cancer cell lines (MDA-MB-231, Ramos, Jurkat)
# T2 sequence (P52594 1-562): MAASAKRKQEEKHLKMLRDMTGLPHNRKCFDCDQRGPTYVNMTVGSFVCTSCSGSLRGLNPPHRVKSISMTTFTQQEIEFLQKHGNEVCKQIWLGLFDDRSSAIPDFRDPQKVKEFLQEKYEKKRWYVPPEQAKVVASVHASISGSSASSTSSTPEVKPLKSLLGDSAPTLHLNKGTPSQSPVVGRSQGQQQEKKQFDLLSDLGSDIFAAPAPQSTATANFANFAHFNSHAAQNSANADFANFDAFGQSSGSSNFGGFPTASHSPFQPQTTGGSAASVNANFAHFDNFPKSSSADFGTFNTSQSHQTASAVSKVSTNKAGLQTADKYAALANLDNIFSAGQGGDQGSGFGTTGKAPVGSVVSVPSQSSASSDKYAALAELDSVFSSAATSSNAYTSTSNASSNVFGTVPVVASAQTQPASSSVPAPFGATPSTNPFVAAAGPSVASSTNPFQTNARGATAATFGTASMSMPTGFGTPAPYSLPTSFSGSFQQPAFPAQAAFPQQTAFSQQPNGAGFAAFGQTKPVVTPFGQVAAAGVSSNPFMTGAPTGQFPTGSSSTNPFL
# Procedure: as §1, §2, §3, §4
SMILES,isoTOP-ABPP ratio (R) at liganded lysine O60664_K257 (PLIN3 Perilipin-3),isoTOP-ABPP ratio (R) at liganded lysine P52594_K134 [1],"isoTOP-ABPP ratio, lysine O60664_K257 (PLIN3 Perilipin-3; 50 uM_231_sol_in vitro)","isoTOP-ABPP ratio, lysine P52594_K134 ([1]; 50 uM_231_sol_in vitro)",also measured
"O=C(Oc1ccc([N+](=O)[O-])cc1[N+](=O)[O-])c1ccc(-c2ccccc2)cc1 [fragment 37, 2,4-Dinitrophenyl [1,1′-biphenyl]-4-carboxylate]",3.5,1.1,,,
"O=C(Oc1ccc([N+](=O)[O-])cc1[N+](=O)[O-])c1ccc(Oc2ccccc2)cc1 [fragment 39, 2,4-Dinitrophenyl 4-phenoxybenzoate]",2.2,1.0,,,isoTOP-ABPP ratio (R) at liganded lysine O60664_K140 (PLIN3 Perilipin-3): 2.0
"O=C(Oc1ccc([N+](=O)[O-])cc1[N+](=O)[O-])c1ccccc1Nc1cccc(C(F)(F)F)c1 [fragment 40, 2,4-Dinitrophenyl 2-((3-(trifluoromethyl)phenyl)amino)benzoate]",1.6,0.8,,,
"CC(C)(C)OC(=O)NCCCC(=O)Oc1ccc([N+](=O)[O-])cc1[N+](=O)[O-] [fragment 41, 2,4-Dinitrophenyl 4-((tert-butoxycarbonyl)amino)butanoate]",,20.0,,,isoTOP-ABPP ratio (R) at liganded lysine O60664_K140 (PLIN3 Perilipin-3): 2.1
"O=C(Oc1ccc([N+](=O)[O-])cc1[N+](=O)[O-])C(c1ccccc1)(c1ccccc1)c1ccccc1 [fragment 42, 2,4-Dinitrophenyl 2,2,2-triphenylacetate]",0.9,1.0,,,isoTOP-ABPP ratio (R) at liganded lysine O60664_K140 (PLIN3 Perilipin-3): 0.9
"N#Cc1ccc(C(=O)Oc2ccc([N+](=O)[O-])cc2[N+](=O)[O-])cc1 [fragment 44, 2,4-Dinitrophenyl 4-cyanobenzoate]",,,1.9,1.5,
"O=C(CCc1ccc2c(c1)OCO2)Oc1ccc([N+](=O)[O-])cc1[N+](=O)[O-] [fragment 45, 2,4-Dinitrophenyl 3-(benzo[d][1,3]dioxol-5-yl)propanoate]",,,2.5,20.0,"isoTOP-ABPP ratio, lysine O60664_K140 (PLIN3 Perilipin-3; 50 uM_231_sol_in vitro): 2.1"
"O=C(ON1C(=O)CCC1=O)c1cc(C(F)(F)F)cc(C(F)(F)F)c1 [fragment 46, 3,5-Bis(trifluoromethyl)benzoic acid NHS ester]",,,0.6,1.0,
"O=C(Oc1c(F)c(F)cc(F)c1F)c1cc(C(F)(F)F)cc(C(F)(F)F)c1 [fragment 48, 2,3,5,6-Tetrafluorophenyl 3,5-bis(trifluoromethyl)benzoate]",,,,1.0,"isoTOP-ABPP ratio, lysine O60664_K140 (PLIN3 Perilipin-3; 50 uM_231_sol_in vitro): 1.3"
"COC(=O)NC(=NC(=O)OCC1c2ccccc2-c2ccccc21)n1cccn1 [fragment 49, N-Methoxycarbonyl-N′-9-fluorenylmethoxycarbonyl-pyrazole-1-carboxamidine]",,,,,"isoTOP-ABPP ratio, lysine O60664_K140 (PLIN3 Perilipin-3; 100 uM_231_sol_in vitro): 3.0; isoTOP-ABPP ratio, lysine P52594_K134 ([1]; 100 uM_231_sol_in vitro): 0.8"
"CC(C)(C)OC(=O)N=C(NC(=O)OC(C)(C)C)n1cccn1 [fragment 50, reference compound]",,,,,"isoTOP-ABPP ratio, lysine O60664_K140 (PLIN3 Perilipin-3; 100 uM_231_sol_in vitro): 1.8; isoTOP-ABPP ratio, lysine P52594_K134 ([1]; 100 uM_231_sol_in vitro): 1.0"
"NC(=O)c1cc(C(F)(F)F)cc(C(F)(F)F)c1 [fragment 51, reference compound]",,,1.0,0.9,
